Assay results reported in paper PMC7415805 (Theranostics, 2020).

How the values were obtained:
[1] = tested on: RAW264.7; assay: [18F]CB251 uptake in activated macrophage cell line; assay type: cell-based, mouse; settings: RAW264.7 activated with LPS and IFN-γ for 24 h vs non-activated
Protocol: (§1) RAW264.7, a mouse macrophage cell line and mouse splenocytes were used to evaluate TSPO expression. LPS (50 ng/mL, Sigma-Aldrich, St.Louis, MO, USA) and IFN-γ (20 ng/mL, Sigma-Aldrich) were used to activate immune cells. The 293FT (Invitrogen, Carlsbad, CA, USA) and MDA-MB-231 (ATCC, Manassas, VA, USA) cell lines were used for various TSPO expression levels. Cells were maintained in complete DMEM (for Raw264.7 and MDA-MB-231) or MEM (for 293FT) with 10% FBS and 1% antibiotics (penicillin-streptomycin). All media and reagents for cell culture, including FBS and antibiotics were purchased from Gibco (Grand Island, NY, USA).
(§2) Cells were seeded in 6-well plates (Sigma-Aldrich) until they reached approximately 80% confluency. Before the uptake experiments, the cells were preincubated with glucose-free RPMI-1640 medium (Gibco) for 4 h. The cells were then trypsinized (Gibco), counted, and 1×10^5 cells transferred into a 5 mL test tube containing warmed Hank's balanced salt solution (HBSS, Sigma-Aldrich) with 0.5% (w/v) bovine serum albumin (Sigma-Aldrich). […] Cell lysates were collected, and radioactivity was measured by a Cobra II gamma counter (Canberra Packard; Vaughan, Ontario, Canada). Radioactivity was normalized according to the amount of total protein at the time of assay. Total protein levels were quantified by the BCA protein assay kit (Pierce, Rockford, IL, USA). […]

[2] = tested on: 293FT cells expressing polymorphic TSPO; assay: In vitro cellular uptake of radioactive ligands in cells expressing polymorphic TSPO; assay type: cell-based, human; settings: 293FT cells expressing TSPO WT or Mut-A147T; 1 h at 37°C
Protocol: Cells were seeded in 6-well plates (Sigma-Aldrich) until they reached approximately 80% confluency. […] The cells were then trypsinized (Gibco), counted, and 1×10^5 cells transferred into a 5 mL test tube containing warmed Hank's balanced salt solution (HBSS, Sigma-Aldrich) with 0.5% (w/v) bovine serum albumin (Sigma-Aldrich). […] The cells were then washed 3 times with cold HBSS and lysed for 5 min in 200 μL of 1% sodium dodecyl sulfate (SDS, Sigma-Aldrich). Cell lysates were collected, and radioactivity was measured by a Cobra II gamma counter (Canberra Packard; Vaughan, Ontario, Canada). Radioactivity was normalized according to the amount of total protein at the time of assay. Total protein levels were quantified by the BCA protein assay kit (Pierce, Rockford, IL, USA). All experiments were performed in triplicate.

[3] = tested on: 293FT cells expressing polymorphic TSPOs; assay: PET scans of 293FT cells expressing polymorphic TSPOs (phantoms and mice bearing the cells); parameters: species or system human; settings: phantoms and mice bearing 293FT cells with polymorphic TSPOs
[4] = tested on: 293FT cells transfected with pCMV-TSPO/eGFP; assay: [18F]CB251 uptake in TSPO-overexpressing cells; assay type: cell-based, human; settings: TSPO-overexpressing 293FT cells vs control
Protocol: (§3) For overexpression of the TSPO protein, the 293FT cell line was transiently transfected with vectors (pCMV-eGFP/TSPO) (AddGene, Cambridge, MA, USA) harboring the eGFP and TSPO coding sequences. MDA-MB-231, which highly expresses TSPO, was used for the reduction of TSPO expression by shRNA (pCMV-eGFP/shTSPO; AddGene). Each vector used for various levels of TSPO expression was transfected by Lipofectamine 2000 (Invitrogen, Waltham, MA, USA) at a total concentration of 2.5 µg/mL. Fluorescent images were acquired by a confocal laser-scanning microscope (Leica TCS SP8; Wetzlar, Hesse, Germany), and Western blotting was performed for verification.
as §2

[5] = tested on: mouse splenocytes; assay: [18F]CB251 uptake in activated splenocytes; assay type: cell-based; settings: mouse splenocytes activated with LPS and IFN-γ for 24 h vs non-activated
Protocol: as §1, §2

[6] = tested on: MDA-MB-231 cells transfected with pCMV-shTSPO/eGFP; assay: [18F]CB251 uptake in cells with reduced TSPO expression; assay type: cell-based, human; settings: MDA-MB-231 cells with reduced TSPO expression vs control
Protocol: as §3, §2

[7] = biological target: T1, TSPO (Mus musculus, UniProt P50637); assay: [18F]CB251 PET/MR in intracranial LPS neuroinflammation model; assay type: in vivo; settings: saline-injected mice, day 4; p=0.012
T1 construct: from tissue; host or cells: brain (striatum) of living C57BL/6 mice after intracranial LPS or saline
Protocol: C57BL/6 mice (male, 6 weeks old) were used for generating the intracranial inflammation model. LPS (Sigma-Aldrich, 5 µg/2 µL dissolved in saline) was used to induce local inflammation in the right striatum of the mouse brain (anteroposterior, +1.8; mediolateral, +2.0; dorsoventral, -3.0) via intracranial injection by a robotic stereotaxic device (Stoelting, Wood Dale, IL) equipped with a Hamilton syringe at a rate of 0.25 µL/min [52]-[54]. Saline was injected as a control. The mouse was placed in the isoflurane induction box (5% isoflurane, 95% air, 250 cc/min) until the animal was fully anesthetized, and the isoflurane percentage was adjusted to 2% at a flow rate of 250 cc/min during the process.
To visualize neuroinflammation, PET/MR scans were acquired by a simultaneous small animal PET insert (SimPET, Brightonic imaging, Seoul, Korea) combined with an M7 1.0 T MRI system (Aspect Imaging, Jerusalem, Israel). […] Mice were anesthetized with 1.5% isoflurane during imaging.
(§4) PET images were reconstructed using 3D OSEM algorithm (12 subsets and 3 iterations). […] PET and MR images were reconstructed and analyzed by the AMIDE program (ver 0.9.0, http://amide.sourceforge.net). The ratio of maximum PET SUV in the right and left striatum was then calculated.

[8] = tested on: intracranial LPS-induced neuroinflammation; assay: Anti-inflammatory treatment in intracranial LPS neuroinflammation model, read by [18F]CB251 PET and BLI; assay type: in vivo, mouse; settings: CDDO-Me i.p. once daily for 3 days after LPS vs LPS-injected mice
Protocol: Luciferase-expressing cells were isolated from the dissected spleens of transgenic C57BL/6luc^Tg mice and centrifuged at 1300 rpm for 5 min at 4 °C). The red blood cell lysis buffer (1 mL/spleen, Sigma-Aldrich) was added to the cell pellet, and the mixture was incubated at room temperature for 3 min to remove red cells. After a double volume of RPMI medium was added to the cells, 2-3 volumes of red blood cell lysis buffer were added until complete lysis of red blood cells. Subsequently, the cells were re-suspended, ensuring a suspension of single cells, and filtered through a cell strainer (40 µm nylon, Falcon, Oneonta, NY). […] Bioluminescence intensity was measured by an IVIS 100 system (Perkin Elmer, Waltham, MA). […]
as §4
An in vivo IVIS 100 bioluminescence/optical imaging system (Xenogen, Alameda, CA, USA) was used to follow luciferase-expressing peripheral immune cells. […] The bioluminescent signal was acquired and analyzed by Living Image ver.2.50.2 software (Xenogen). […]

[9] = biological target: TSPO; settings: Ki of ligands for TSPO; cited from earlier work
[10] = tested on: TSPO A147T mutant (LAB); settings: previous reports; cited from earlier work

T1 sequence (P50637 whole entry): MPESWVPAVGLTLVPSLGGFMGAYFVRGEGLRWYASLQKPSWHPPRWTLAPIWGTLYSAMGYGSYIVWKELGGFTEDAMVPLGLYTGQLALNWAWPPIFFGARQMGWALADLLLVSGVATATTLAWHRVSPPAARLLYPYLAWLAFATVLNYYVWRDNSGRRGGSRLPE

Structure (SMILES): CCCN(CCC)C(=O)Cc1c(-c2ccc(OCCF)cc2)nc2c(Cl)cc(Cl)cn12 [CB251]
- [18F]CB251 uptake [1]: increased
- sensitivity of cellular uptake to TSPO polymorphism [2]: much less sensitive to TSPO polymorphism
- sensitivity of PET signal to TSPO polymorphism [3]: less sensitive to TSPO polymorphism
- [18F]CB251 uptake [4]: increased
- [18F]CB251 uptake [5]: increased
- [18F]CB251 uptake [6]: decreased
- [18F]CB251 PET signal, saline-injected right striatum vs non-injected left striatum [7]: increased slightly

Structure (SMILES): COC(=O)[C@]12CCC(C)(C)C[C@H]1[C@H]1C(=O)C=C3[C@@]4(C)C=C(C#N)C(=O)C(C)(C)[C@@H]4CC[C@@]3(C)[C@]1(C)CC2 [CDDO-Me, 2-Cyano-3,12-dioxo-oleana-1,9(11)-dien-28-oic acid methyl ester]
- BLI signal ratio (total photon flux, right/left striatum) ([8]; p=0.0025): decreased dramatically
- [18F]CB251 uptake ratio (SUVmax, right/left striatum) ([8]; p=0.0323): significantly decreased

Structure (SMILES): COc1ccccc1CN(C(C)=O)c1cnccc1Oc1ccccc1 [PBR28, reference compound]
- Ki [9]: 6.1 nM
- ratio of IC50 LAB/HAB [10]: 55

Structure (SMILES): CCC(C)N(C)C(=O)c1cc2ccccc2c(-c2ccccc2Cl)n1 (stereo not drawn) [PK11195, reference compound]
- sensitivity of cellular uptake to TSPO polymorphism [2]: much less sensitive to TSPO polymorphism
